Data on 23 compounds can be found in patent US20230083012A1, “DIHYDROPYRIMIDINE DERIVATIVES AND USES THEREOF IN THE TREATMENT OF HBV INFECTION OR OF HBV-INDUCED DISEASES” (priority 2019, published 2023).

Like-named read-outs stand apart in the source and are kept apart here.

One data set deals with HBV. In words: Anti-HBV activity in HepG2.2.15 cells (HBV DNA in culture medium by qPCR). In kind it is cell-based. To be noted: HepG2.2.15 cells, 6 days treatment, HBV DNA in culture medium quantified by real-time PCR, read-out: EC50. Put shortly: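 HepG2.2.15 cells in 2% FBS medium at 37 °C were treated with compounds for 6 days, with medium and compound refreshed at day 3; 1:3 dilutions, 8 concentrations in triplicate, top 10 or 1 uM. HBV DNA in culture medium quantified by qPCR to derive EC50; CC50 from parallel plates (top 100 uM).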
Background: Real-time PCR tracks product formation cycle by cycle.

A short description of data set [1]: Cytotoxicity determination in HepG2.2.15 cells (CCK-8 cell viability). To be noted: human, 6 days treatment, CCK-8 assay, highest concentration 100 uM. In kind it is cell-based. In outline: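 HepG2.2.15 cells seeded at 5,000 cells/well in 2% FBS medium, exposed 6 days to compounds (8-point 1:3 dilutions from 100 uM, triplicate), refreshed at day 3. Viability read by CCK-8 after 2.5 h at 37° C, absorbance 450 nm with 630 nm reference; CC50 calculated.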
(Tetrazolium assays rely on reduction of a dye to a coloured formazan, in cell work by metabolically active cells.)

Setting [2] is: Hepatitis B virus, HepG2.2.15, 144 h.

Take `CCOC(=O)C1=C(CN2CC(F)(F)[C@@H]3[C@H]2CON3CCC(C)(C)C(=O)O)NC(c2nccs2)=N[C@@H]1c1ccc(F)nc1C` (single isomer, unassigned) [Compound 166, 4-((cis)-4-((5-(ethoxycarbonyl)-6-(6-fluoro-2-methylpyridin-3-yl)-2-(thiazol-2-yl)-3,6-dihydropyrimidin-4-yl)methyl)-6,6-difluorohexahydro-1H-pyrrolo[3,2-c]isoxazol-1-yl)-2,2-dimethylbutanoic acid]: in the data set on HBV (setting [2]), the EC50 was determined as 59 nM. The CC50 at 6 days in data set [1] is greater than 100 µM.

Turning to `CCOC(=O)C1=C(CN2CC(F)(F)[C@H]3CN([C@H]4C[C@H](C(=O)O)C4)C[C@H]32)NC(c2nccs2)=N[C@H]1c1cccc(F)c1C` (single isomer, unassigned) [Compound 18A], the EC50 in the data set with HBV (setting [2]) was 61.1 nM. In data set [1], this compound returned a CC50 at 6 days of 66.3 µM.

Regarding `CCOC(=O)C1=C(CN2CC(F)(F)[C@@H]3C(=O)N(C(=O)NCC(C)(C)C(=O)O)C[C@@H]32)NC(c2nccs2)=N[C@H]1c1cccc(F)c1C` (single isomer, unassigned) [Compound 188], the EC50 with HBV (setting [2]) was found to be 62.4 nM. Moreover, half-maximal cytotoxicity in data set [1] (CC50 at 6 days) was put at 32.1 µM.

In the case of `CCOC(=O)C1=C(CN2CC[C@@]3(F)C(=O)N(CCC(C)(C)C(=O)O)C[C@@H]23)NC(c2nccs2)=N[C@H]1c1cccc(F)c1C` (single isomer, unassigned) [Compound 50A], the EC50 in the data set on HBV (setting [2]) stood at 40.8 nM. For the same compound, the CC50 at 6 days in data set [1] came to 49.3 µM.

Turning to `CCOC(=O)C1=C(CN2CC(F)(F)[C@@H]3[C@H]2CON3CCC(C)(C)C(=O)O)NC(c2nccs2)=N[C@H]1c1cccc(F)c1C` (relative stereo) [Compound 69A, 4-(4-(((S)-5-(ethoxycarbonyl)-6-(3-fluoro-2-methylphenyl)-2-(thiazol-2-yl)-3,6-dihydropyrimidin-4-yl)methyl)-6,6-difluorohexahydro-1H-pyrrolo[3,2-c]isoxazol-1-yl)-2,2-dimethylbutanoic acid], in the data set on HBV (setting [2]), the EC50 turned out to be 0.7 nM. Also, in data set [1], the CC50 at 6 days turned out to be 37 µM.

On to `CCOC(=O)C1=C(CN2CC(F)(F)[C@H]3[C@@H]2CCN3CC(C)(C)C(=O)O)NC(c2nccs2)=N[C@H]1c1cccc(F)c1C` (relative stereo) [Compound 1A, 3-(4-(((S)-5-(ethoxycarbonyl)-6-(3-fluoro-2-methylphenyl)-2-(thiazol-2-yl)-3,6-dihydropyrimidin-4-yl)methyl)-6,6-difluorohexahydropyrrolo[3,2-b]pyrrol-1(2H)-yl)-2,2-dimethylpropanoic acid], for which the EC50 with HBV (setting [2]) is 1.3 nM. The compound also displayed a CC50 at 6 days in data set [1] of 15 µM.

In the case of `CCOC(=O)C1=C(CN2CC(F)(F)[C@@H]3[C@H]2CON3CCC(C)(C)C(=O)O)NC(c2nccs2)=N[C@@H]1c1ccc(F)c(F)c1C` (single isomer, unassigned) [Compound 164, (cis)-4-(4-((6-(3,4-difluoro-2-methylphenyl)-5-(ethoxycarbonyl)-2-(thiazol-2-yl)-3,6-dihydropyrimidin-4-yl)methyl)-6,6-difluorohexahydro-1H-pyrrolo[3,2-c]isoxazol-1-yl)-2,2-dimethylbutanoic acid], the EC50 in the data set with HBV (setting [2]) is 3 nM. This compound also yielded a CC50 at 6 days in data set [1] greater than 25 µM.

As for `CCOC(=O)C1=C(CN2C[C@H](F)[C@H]3[C@@H]2CCN3CCC(C)(C)C(=O)O)NC(c2nccs2)=N[C@H]1c1cccc(F)c1C` (single isomer, unassigned) [Compound 119], in the data set with HBV (setting [2]), the EC50 stood at 55.5 nM. In addition, half-maximal cytotoxicity in data set [1] (CC50 at 6 days) was put at 20.2 µM.

`CCOC(=O)C1=C(CN2CC(F)(F)[C@@H]3[C@H]2CN(C(C)C)N3CCC(C)(C)C(=O)O)NC(c2nccs2)=N[C@H]1c1cccc(F)c1C` (single isomer, unassigned) [Compound 89]: in the data set on HBV (setting [2]), the EC50 came out at 60 nM. This compound displayed a half-maximal cytotoxic concentration (CC50) at 6 days in data set [1] greater than 3.12 µM.

For the compound `COC(=O)C1=C(CN2CC(F)(F)[C@H]3[C@@H]2CCN3C[C@@H](C)C(=O)O)NC(c2nccs2)=N[C@H]1c1ccc(F)c(F)c1Cl` (single isomer, unassigned) [Compound 134A, 3-((cis)-4-((6-(2-chloro-3,4-difluorophenyl)-5-(methoxycarbonyl)-2-(thiazol-2-yl)-3,6-dihydropyrimidin-4-yl)methyl)-6,6-difluorohexahydropyrrolo[3,2-b]pyrrol-1(2H)-yl)-2-methylpropanoic acid], the EC50 in the data set with HBV (setting [2]) is less than 0.5 nM. In addition, half-maximal cytotoxicity in data set [1] (CC50 at 6 days) was put at 26.9 µM.

Regarding `CCOC(=O)C1=C(CN2CC(F)(F)[C@@H]3[C@H]2CON3CC(C)(C)C(=O)O)NC(c2nccs2)=N[C@@H]1c1ccc(F)nc1C` (single isomer, unassigned) [Compound 172, 3-((cis)-4-((5-(Ethoxycarbonyl)-6-(6-fluoro-2-methylpyridin-3-yl)-2-(thiazol-2-yl)-3,6-dihydropyrimidin-4-yl)methyl)-6,6-difluorohexahydro-1H-pyrrolo[3,2-c]isoxazol-1-yl)-2,2-dimethylpropanoic acid], the EC50 in the data set with HBV (setting [2]) worked out at 33 nM. Also, the CC50 at 6 days in data set [1] is greater than 100 µM.

Take `COC(=O)C1=C(CN2CC(F)(F)[C@H]3[C@@H]2CCN3C[C@@H](C)C(=O)O)NC(c2nccs2)=N[C@H]1c1cccc(F)c1C` (single isomer, unassigned) [Compound 131A, 3-((cis)-6,6-Difluoro-4-(((S*)-6-(3-fluoro-2-methylphenyl)-5-(methoxycarbonyl)-2-(thiazol-2-yl)-3,6-dihydropyrimidin-4-yl)methyl)hexahydropyrrolo[3,2-b]pyrrol-1(2H)-yl)-2-methylpropanoic acid]: the EC50 with HBV is 0.5 nM. For the same compound, the CC50 at 6 days in data set [1] turned out to be 44.6 µM.

With `CCOC(=O)C1=C(CN2CC(F)(F)[C@H]3[C@@H]2CCN3CCC(C)(C)C(=O)O)NC(c2nccs2)=N[C@H]1c1cccc(F)c1F` (single isomer, unassigned) [Compound 142], the EC50 in the data set with HBV (setting [2]) stood at 8 nM. The compound further returned a CC50 at 6 days in data set [1] greater than 25 µM.

As to `CCOC(=O)C1=C(CN2CC(F)(F)[C@@H]3CN(C(=O)NCC(C)(C)C(=O)O)C(=O)[C@@H]32)NC(c2nccs2)=N[C@H]1c1cccc(F)c1C` (single isomer, unassigned) [Compound 189], in the data set on HBV (setting [2]), the EC50 came to 18.1 nM. In data set [1], this compound gave a CC50 at 6 days of 28.2 µM.

For `CCOC(=O)C1=C(CN2CC(F)(F)[C@H]3[C@@H]2CCN3C[C@H]2C[C@@](C)(C(=O)O)C2)NC(c2nccs2)=N[C@H]1c1cccc(F)c1C` (single isomer, unassigned) [Compound 116A], the EC50 in the data set on HBV (setting [2]) amounted to 0.8 nM. This compound also registered a CC50 at 6 days in data set [1] of 12.1 µM.

On to `CCOC(=O)C1=C(CN2CC(F)(F)[C@H]3[C@@H]2CCN3S(N)(=O)=O)NC(c2nccs2)=N[C@H]1c1cccc(F)c1C` (single isomer, unassigned) [Compound 34], for which, in the data set with HBV (setting [2]), the EC50 was 12 nM. Besides, in data set [1], half-maximal cytotoxicity (CC50 at 6 days) was put at 14.3 µM.

In the case of `CCOC(=O)C1=C(CN2CCC3(F)C(=O)N(CC(C)(C)C(=O)O)CC23)NC(c2nccs2)=N[C@H]1c1cccc(F)c1C` (stereo in doubt) [Compound 3, 3-((cis)-1-(((S)-5-(ethoxycarbonyl)-6-(3-fluoro-2-methylphenyl)-2-(thiazol-2-yl)-3,6-dihydropyrimidin-4-yl)methyl)-3a-fluoro-4-oxohexahydropyrrolo[3,4-b]pyrrol-5(1H)-yl)-2,2-dimethylpropanoic acid], in the data set on HBV (setting [2]), the EC50 came out at 20.2 nM. Also, the CC50 at 6 days in data set [1] is 63.1 µM.

For the compound `CCOC(=O)C1=C(CN2CC(F)(F)[C@H]3[C@@H]2CCN3C2CCC(C(=O)O)C2)NC(c2nccs2)=N[C@H]1c1cccc(F)c1C` (single isomer, unassigned) [Compound 115], the EC50 in the data set on HBV (setting [2]) amounted to 3.1 nM. In data set [1], the midpoint of cytotoxicity, the CC50 at 6 days, lay at 24 µM.

As for `CCOC(=O)C1=C(CN2CC(F)(F)[C@H]3[C@@H]2CCN3[C@H](C)CC(C)(C)C(=O)O)NC(c2nccs2)=N[C@H]1c1cccc(F)c1C` (single isomer, unassigned) [Compound 105A], the EC50 in the data set on HBV (setting [2]) turned out to be 10.5 nM. In addition, in data set [1], the CC50 at 6 days worked out at 15.2 µM.

For `[H][C@]1(C(=O)O)C[C@@]2(C1)C[C@@]([H])(N1CC[C@H]3[C@@H]1C(F)(F)CN3CC1=C(C(=O)OCC)[C@H](c3cccc(F)c3C)N=C(c3nccs3)N1)C2` (single isomer, unassigned) [Compound 113B], in the data set with HBV (setting [2]), the EC50 is less than 1 nM. In data set [1], this compound came in with a CC50 at 6 days greater than 3.1 µM.

For the compound `CCOC(=O)C1=C(CN2CC(F)(F)[C@H]3[C@@H]2CCN3C[C@H]2C[C@@H](C(=O)O)C2)NC(c2nccs2)=N[C@H]1c1cccc(F)c1C` (single isomer, unassigned) [Compound 143B], the EC50 in the data set with HBV (setting [2]) was determined as 4.6 nM. In addition, the CC50 at 6 days in data set [1] is 22.8 µM.

On to `CCOC(=O)C1=C(CN2CC(F)(F)[C@H]3[C@@H]2CC(C)N3CCC(C)(C)C(=O)O)NC(c2nccs2)=N[C@H]1c1cccc(F)c1C` (single isomer, unassigned) [Compound 153], for which the EC50 with HBV (setting [2]) turned out to be 6 nM. This compound gave a CC50 at 6 days in data set [1] of 21.8 µM.

As for `CCOC(=O)C1=C(CN2CC[C@]3(F)C(=O)N(CC(C)(C)C(=O)O)C[C@H]23)NC(c2nccs2)=N[C@H]1c1cccc(F)c1C` (relative stereo) [Compound 3B, 3-(1-(((S)-5-(ethoxycarbonyl)-6-(3-fluoro-2-methylphenyl)-2-(thiazol-2-yl)-3,6-dihydropyrimidin-4-yl)methyl)-3a-fluoro-4-oxohexahydropyrrolo[3,4-b]pyrrol-5(1H)-yl)-2,2-dimethylpropanoic acid], in the data set with HBV (setting [2]), the EC50 was found to be 38.7 nM. This compound also showed a CC50 at 6 days in data set [1] of 51.8 µM.

The EC50 is the concentration that produces a half-maximal response. In general, CC50 refers to the concentration at which the toxic effect on the cells reaches its halfway point. Read a high CC50 as better tolerance by the cells.
